Here are results for 1 compound from patent publication US7202239B2, “Cyclohexylphenyl carboxamides tocolytic oxytocin receptor antagonists” (Wyeth, priority 2001, dated 2007).

For orientation: melting point means the temperature, or range, at which the solid turns liquid. For `O=C(c1ccc(C2CCCCC2)cc1)N1Cc2cccn2Cc2ccccc21` [Example 4, 10-(4-Cyclohexyl-benzoyl)-10,11-dihydro-5H-pyrrolo[2,1-c][1,4]benzodiazepine], the melting point was in the range of 127 to 129 °C.
